In US20250179103A1, “6-OXODECAHYDROPYRROLO[1,2-A][1,5]DIAZOCINE AND 6-OXODECAHYDRO-4H-PYRROLO[2,1-D][1,5]THIAZOCINE DERIVATIVES AS STAT3 AND STAT6 MODULATORS FOR THE TREATMENT OF CANCER AND INFLAMMATORY CONDITIONS” (Recludix Pharma, Inc., priority 2022, published 2025):

Columns and labels:
[1] = target: T1, Recombinant STAT3 protein (STAT3(G127-I722)) (Homo sapiens, UniProt P40763); assay: STAT3 Fluorescence Polarization (FP) Assay; assay type: binding; conditions: STAT3(G127-I722) 25 nM, probe 5-FAM-GpYLPQTV-NH2 2 nM, 45-minute incubation
T1 construct: Recombinant STAT3 protein (STAT3(G127-I722))
T1 sequence (P40763 127-722): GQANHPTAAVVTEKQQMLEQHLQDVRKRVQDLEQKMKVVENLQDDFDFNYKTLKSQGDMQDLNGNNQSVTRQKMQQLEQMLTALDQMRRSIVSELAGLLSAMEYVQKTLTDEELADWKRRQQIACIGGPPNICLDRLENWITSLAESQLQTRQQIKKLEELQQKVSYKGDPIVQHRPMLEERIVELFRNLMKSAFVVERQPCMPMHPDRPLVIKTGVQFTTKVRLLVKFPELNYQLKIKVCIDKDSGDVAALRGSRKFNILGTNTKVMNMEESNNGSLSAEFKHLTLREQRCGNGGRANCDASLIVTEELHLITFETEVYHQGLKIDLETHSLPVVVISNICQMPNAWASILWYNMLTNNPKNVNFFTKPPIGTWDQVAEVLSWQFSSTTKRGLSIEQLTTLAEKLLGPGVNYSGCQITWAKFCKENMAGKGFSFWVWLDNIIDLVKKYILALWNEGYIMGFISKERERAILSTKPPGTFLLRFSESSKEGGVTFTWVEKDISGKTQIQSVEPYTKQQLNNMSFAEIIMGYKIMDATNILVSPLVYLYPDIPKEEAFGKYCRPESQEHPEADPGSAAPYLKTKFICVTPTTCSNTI
How it was run: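 STAT3(G127-I722), 25 nM, was mixed with 2 nM 5-FAM-GpYLPQTV-NH2 probe in HEPES pH 7.4 buffer with 1% DMSO and serially diluted compound. FP (mP) was read after 45 min at room temperature. IC50 came from nonlinear regression.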

[2] = target: T2, Recombinant STAT6 protein (STAT6(W123-T658)) (Homo sapiens, UniProt P42226); assay: STAT6 Fluorescence Polarization (FP) Assay; assay type: binding; conditions: STAT6(W123-T658) 250 nM, probe 5-FAM-ApYKPFQDLI-NH2 2 nM, 45-minute incubation
T2 construct: Recombinant STAT6 protein (STAT6(W123-T658))
T2 sequence (P42226 123-658): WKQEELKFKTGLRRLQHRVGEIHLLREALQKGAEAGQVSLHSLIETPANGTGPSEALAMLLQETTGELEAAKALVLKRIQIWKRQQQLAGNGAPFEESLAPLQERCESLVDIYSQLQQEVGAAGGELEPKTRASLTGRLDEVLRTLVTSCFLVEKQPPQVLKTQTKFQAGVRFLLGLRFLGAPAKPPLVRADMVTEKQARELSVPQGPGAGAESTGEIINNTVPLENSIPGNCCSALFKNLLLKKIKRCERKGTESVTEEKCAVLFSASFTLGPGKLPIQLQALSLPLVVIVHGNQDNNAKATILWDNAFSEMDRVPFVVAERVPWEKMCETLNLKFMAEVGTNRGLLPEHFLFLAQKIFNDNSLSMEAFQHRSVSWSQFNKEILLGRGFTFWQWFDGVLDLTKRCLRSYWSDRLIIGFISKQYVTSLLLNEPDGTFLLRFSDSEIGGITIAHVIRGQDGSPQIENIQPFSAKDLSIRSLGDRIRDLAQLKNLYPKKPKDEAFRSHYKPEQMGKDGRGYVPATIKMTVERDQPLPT
How it was run: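 Displacement of a fluorescent phosphotyrosine peptide (5-FAM-ApYKPFQDLI-NH2, 2 nM) from STAT6(W123-T658) (250 nM), 1% DMSO, pH 7.4 HEPES buffer. After 45 min at room temperature, polarization (mP) was plotted versus log compound concentration and fitted by nonlinear regression to give IC50.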

| SMILES | IC50 [1] | IC50 [2] |
| --- | --- | --- |
| O=C(N[C@H]1CN(C(=O)CCc2ccccc2)CC[C@H]2CC[C@@H](C(=O)Nc3ccc(-c4ccccc4)cc3)N2C1=O)c1cc2cc(C(F)(F)P(=O)(O)O)ccc2[nH]1 [Compound 215, ((2-(((5S,8S,10aR)-8-([1,1′-biphenyl]-4-ylcarbamoyl)-6-oxo-3-(3-phenylpropanoyl)decahydropyrrolo[1,2a][1,5]diazocin-5-yl)carbamoyl)-1H-indol-5-yl)difluoromethyl)phosphonic acid] | 0.1 to 1 µM | ≤ 0.3 µM |
| C[C@H](C(=O)N1CC[C@H]2CC[C@@H](C(=O)N(C)c3ccccc3)N2C(=O)[C@@H](NC(=O)c2cc3cc(C(F)(F)P(=O)(O)O)ccc3[nH]2)C1)c1ccccc1 [Compound 216, (difluoro(2-(((5S,8S,10aR)-8-(methyl(phenyl)carbamoyl)-6-oxo-3-((S)-2-phenylpropanoyl)decahydropyrrolo[1,2 a][1,5]diazocin-5-yl)carbamoyl)-1H-indol-5-yl)methyl)phosphonic acid] | 1 to 10 µM | 0.3 to 3 µM |
| C[C@@H](C(=O)N1CC[C@H]2CC[C@@H](C(=O)N(C)c3ccccc3)N2C(=O)[C@@H](NC(=O)c2cc3cc(C(F)(F)P(=O)(O)O)ccc3[nH]2)C1)c1ccccc1 [Compound 217, (difluoro(2-(((5S,8S,10aR)-8-(methyl(phenyl)carbamoyl)-6-oxo-3-((R)-2-phenylpropanoyl)decahydropyrrolo[1,2 a][1,5]diazocin-5-yl)carbamoyl)-1H-indol-5-yl)methyl)phosphonic acid] | > 10 µM | 0.3 to 3 µM |
| CN(C(=O)[C@@H]1CC[C@@H]2CCN(C(=O)c3ccccc3)C[C@H](NC(=O)c3cc4cc(C(F)(F)P(=O)(O)O)ccc4[nH]3)C(=O)N21)c1ccccc1 [Compound 220, ((2-(((5S,8S,10aR)-3-benzoyl-8-(methyl(phenyl)carbamoyl)-6-oxodecahydropyrrolo[1,2-a][1,5]diazocin-5-yl)carbamoyl)-1H-indol-5-yl)difluoromethyl)phosphonic acid] | > 10 µM | 0.3 to 3 µM |
| CN(C)C(=O)[C@@H]1CC[C@@H]2CCN(c3ccccc3)C[C@H](NC(=O)c3cc4cc(C(F)(F)P(=O)(O)O)ccc4[nH]3)C(=O)N21 [Compound 223, ((2-(((5S,8S,10aR)-8-(dimethylcarbamoyl)-6-oxo-3-phenyldecahydropyrrolo[1,2-a][1,5]diazocin-5-yl)carbamoyl)-1H-indol-5-yl)difluoromethyl)phosphonic acid] | 1 to 10 µM | 0.3 to 3 µM |
| CC(C)CN1CC[C@H]2CC[C@@H](C(=O)N(C)C)N2C(=O)[C@@H](NC(=O)c2cc3cc(C(F)(F)P(=O)(O)O)ccc3[nH]2)C1 [Compound 224, ((2-(((5S,8S,10aR)-8-(dimethylcarbamoyl)-3-isobutyl-6-oxodecahydropyrrolo[1,2-a][1,5]diazocin-5-yl)carbamoyl)-1H-indol-5-yl)difluoromethyl)phosphonic acid] | 1 to 10 µM | 3 to 30 µM |
| CN(C)C(=O)[C@@H]1CC[C@@H]2CCN(Cc3ccccc3)C[C@H](NC(=O)c3cc4cc(C(F)(F)P(=O)(O)O)ccc4[nH]3)C(=O)N21 [Compound 225, ((2-(((5S,8S,10aR)-3-benzyl-8-(dimethylcarbamoyl)-6-oxodecahydropyrrolo[1,2-a][1,5]diazocin-5-yl)carbamoyl)-1H-indol-5-yl)difluoromethyl)phosphonic acid] | 1 to 10 µM | 3 to 30 µM |
| CNC(=O)C[C@@H](Cc1ccc(OC)cc1)NC(=O)[C@@H]1CC[C@@H]2CCN(C(=O)c3n[nH]c4ccc(C)cc34)C[C@H](NC(=O)c3ccc4ccc(C(F)(F)P(=O)(O)O)cc4c3)C(=O)N21 [Compound 229, (difluoro(7-(((5S,8S,10aR)-8-(((R)-1-(4-methoxyphenyl)-4-(methylamino)-4-oxobutan-2-yl)carbamoyl)-3-(5-methyl-1H-indazole-3-carbonyl)-6-oxodecahydropyrrolo[1,2-a][1,5]diazocin-5-yl)carbamoyl)naphthalen-2-yl)methyl)phosphonic acid] | 1 to 10 µM | ≤ 0.3 µM |
| Cc1ccc2[nH]nc(C(=O)N3CC[C@H]4CC[C@@H](C(=O)N(C)C)N4C(=O)[C@@H](NC(=O)c4cc5cc(CP(=O)(O)O)ccc5s4)C3)c2c1 [Compound 230, ((2-(((5S,8S,10aR)-8-(dimethylcarbamoyl)-3-(5-methyl-1H-indazole-3-carbonyl)-6-oxodecahydropyrrolo[1,2-a][1,5]diazocin-5-yl)carbamoyl)benzo[b]thiophen-5-yl)methyl)phosphonic acid] | > 10 µM | 3 to 30 µM |
| O=C(N[C@H]1CN(Cc2ccn3ccnc3c2)CC[C@H]2CC[C@@H](C(=O)N3CC(c4cccnc4)C3)N2C1=O)c1cc2cc(CP(=O)(O)O)ccc2s1 [Compound 235, ((2-(((5S,8S,10aR)-3-(imidazo[1,2-a]pyridin-7-ylmethyl)-6-oxo-8-(3-(pyridin-3-yl)azetidine-1-carbonyl)decahydropyrrolo[1,2-a][1,5]diazocin-5-yl)carbamoyl)benzo[b]thiophen-5-yl)methyl)phosphonic acid] | ≤ 0.1 µM | > 30 µM |

Now from value to compound:

| IC50 [1] | IC50 [2] | SMILES |
| --- | --- | --- |
| 1 to 10 µM | 0.3 to 3 µM | CN(C(=O)[C@@H]1CC[C@@H]2CCN(CC(F)F)C[C@H](NC(=O)c3cc4cc(C(F)(F)P(=O)(O)O)ccc4[nH]3)C(=O)N21)c1ccccc1 [Compound 218, ((2-(((5S,8S,10aR)-3-(2,2-difluoroethyl)-8-(methyl(phenyl)carbamoyl)-6-oxodecahydropyrrolo[1,2-a][1,5]diazocin-5-yl)carbamoyl)-1H-indol-5-yl)difluoromethyl)phosphonic acid] |
| 1 to 10 µM | 0.3 to 3 µM | CN(C(=O)[C@@H]1CC[C@@H]2CCN(CC(F)(F)F)C[C@H](NC(=O)c3cc4cc(C(F)(F)P(=O)(O)O)ccc4[nH]3)C(=O)N21)c1ccccc1 [Compound 219, (difluoro(2-(((5S,8S,10aR)-8-(methyl(phenyl)carbamoyl)-6-oxo-3-(2,2,2-trifluoroethyl)decahydropyrrolo[1,2-a][1,5]diazocin-5-yl)carbamoyl)-1H-indol-5-yl)methyl)phosphonic acid] |
| 1 to 10 µM | 0.3 to 3 µM | CC(C)C(=O)N1CC[C@H]2CC[C@@H](C(=O)N(C)c3ccccc3)N2C(=O)[C@@H](NC(=O)c2cc3cc(C(F)(F)P(=O)(O)O)ccc3[nH]2)C1 [Compound 221, (difluoro(2-(((5S,8S,10aR)-3-isobutyryl-8-(methyl(phenyl)carbamoyl)-6-oxodecahydropyrrolo[1,2-a][1,5]diazocin-5-yl)carbamoyl)-1H-indol-5-yl)methyl)phosphonic acid] |
| ≤ 0.1 µM | 0.3 to 3 µM | CCN1CC[C@H](NC(=O)c2cc3cc(C(F)(F)P(=O)(O)O)ccc3s2)C(=O)N2[C@H](CC[C@H]2C(=O)N2CC(c3cccnc3)C2)C1 [Compound 226, ((2-(((5S,8S,10aR)-2-ethyl-6-oxo-8-(3-(pyridin-3-yl)azetidine-1-carbonyl)decahydropyrrolo[1,2-a][1,4]diazocin-5-yl)carbamoyl)benzo[b]thiophen-5-yl)difluoromethyl)phosphonic acid] |
| 1 to 10 µM | ≤ 0.3 µM | Cc1ccc2[nH]nc(C(=O)N3CC[C@H]4CC[C@@H](C(=O)N(C)C)N4C(=O)[C@@H](NC(=O)c4cc5cc(C(F)(F)P(=O)(O)O)ccc5s4)C3)c2c1 [Compound 231, ((2-(((5S,8S,10aR)-8-(dimethylcarbamoyl)-3-(5-methyl-1H-indazole-3-carbonyl)-6-oxodecahydropyrrolo[1,2-a][1,5]diazocin-5-yl)carbamoyl)benzo[b]thiophen-5-yl)difluoromethyl)phosphonic acid] |
| > 10 µM | ≤ 0.3 µM | O=C(N[C@H]1CCN(CC(F)F)C[C@H]2CC[C@@H](C(=O)N3CC(c4cc[nH]c(=O)c4)CC34CC4)N2C1=O)c1ccc2ccc(C(F)(F)P(=O)(O)O)cc2c1 (stereo partly drawn) [Compound 234, ((7-(((5S,8S,10aR)-2-(2,2-difluoroethyl)-6-oxo-8-(6-(2-oxo-1,2-dihydropyridin-4-yl)-4-azaspiro[2.4]heptane-4-carbonyl)decahydropyrrolo[1,2-a][1,4]diazocin-5-yl)carbamoyl)naphthalen-2-yl)difluoromethyl)phosphonic acid] |
| 0.1 to 1 µM | ≤ 0.3 µM | CNC(=O)[C@@H]1CC[C@@H]2CCN(C(=O)c3n[nH]c4ccc(C)cc34)C[C@H](NC(=O)c3ccc4ccc(C(F)(F)P(=O)(O)O)cc4c3)C(=O)N21 [Compound 237, (difluoro(7-(((5S,8S,10aR)-3-(5-methyl-1H-indazole-3-carbonyl)-8-(methylcarbamoyl)-6-oxodecahydropyrrolo[1,2-a][1,5]diazocin-5-yl)carbamoyl)naphthalen-2-yl)methyl)phosphonic acid] |
